Where two headings read alike, the source gives them in different places.

One assay has as its target T1, Human mTOR (FLAG-TOR) (Homo sapiens, UniProt P42345).
T1 construct: FLAG
The assay is described as follows: Human mTOR kinase assay with purified enzyme, DELFIA format. In kind it is biochemical. The procedure, abridged:
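DELFIA readout: Eu-anti-P(T389)-S6K antibody (40 ng/mL, 1 h) on captured His6-S6K from the stopped reaction. Kinase step used purified FLAG-tagged human mTOR with test compound in HEPES (pH 7.4)/MnCl2/DTT buffer, 2 h at room temperature (linear 1–6 h), terminated by EDTA/EGTA.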

Assay [1] has as its target T2, PI3K (Homo sapiens, UniProt P42336).
T2 construct: PI3 Kinase α IC50; other: PI3 Kinase α; other: PI3 Kinase α isoform, fluorescence polarization
The assay is described as follows: Fluorescence polarization assay for PI3K. It is filed as biochemical. The settings on record: read-out: PI3 Kinase α IC50. The procedure, abridged: (§1)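 Fluorescence-polarization competition readout: after 30–60 min of PIP2/ATP turnover in 1% DMSO, a stop mix with GST-GRP (70 nM) and red probe (10 nM) was added.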

Assay [2] deals with T3, PI3K (Homo sapiens, UniProt P48736).
T3 construct: PI3 Kinase γ IC50; other: PI3 Kinase γ; other: PI3 Kinase γ isoform, fluorescence polarization
T3 sequence (P48736 whole entry, canonical isoform): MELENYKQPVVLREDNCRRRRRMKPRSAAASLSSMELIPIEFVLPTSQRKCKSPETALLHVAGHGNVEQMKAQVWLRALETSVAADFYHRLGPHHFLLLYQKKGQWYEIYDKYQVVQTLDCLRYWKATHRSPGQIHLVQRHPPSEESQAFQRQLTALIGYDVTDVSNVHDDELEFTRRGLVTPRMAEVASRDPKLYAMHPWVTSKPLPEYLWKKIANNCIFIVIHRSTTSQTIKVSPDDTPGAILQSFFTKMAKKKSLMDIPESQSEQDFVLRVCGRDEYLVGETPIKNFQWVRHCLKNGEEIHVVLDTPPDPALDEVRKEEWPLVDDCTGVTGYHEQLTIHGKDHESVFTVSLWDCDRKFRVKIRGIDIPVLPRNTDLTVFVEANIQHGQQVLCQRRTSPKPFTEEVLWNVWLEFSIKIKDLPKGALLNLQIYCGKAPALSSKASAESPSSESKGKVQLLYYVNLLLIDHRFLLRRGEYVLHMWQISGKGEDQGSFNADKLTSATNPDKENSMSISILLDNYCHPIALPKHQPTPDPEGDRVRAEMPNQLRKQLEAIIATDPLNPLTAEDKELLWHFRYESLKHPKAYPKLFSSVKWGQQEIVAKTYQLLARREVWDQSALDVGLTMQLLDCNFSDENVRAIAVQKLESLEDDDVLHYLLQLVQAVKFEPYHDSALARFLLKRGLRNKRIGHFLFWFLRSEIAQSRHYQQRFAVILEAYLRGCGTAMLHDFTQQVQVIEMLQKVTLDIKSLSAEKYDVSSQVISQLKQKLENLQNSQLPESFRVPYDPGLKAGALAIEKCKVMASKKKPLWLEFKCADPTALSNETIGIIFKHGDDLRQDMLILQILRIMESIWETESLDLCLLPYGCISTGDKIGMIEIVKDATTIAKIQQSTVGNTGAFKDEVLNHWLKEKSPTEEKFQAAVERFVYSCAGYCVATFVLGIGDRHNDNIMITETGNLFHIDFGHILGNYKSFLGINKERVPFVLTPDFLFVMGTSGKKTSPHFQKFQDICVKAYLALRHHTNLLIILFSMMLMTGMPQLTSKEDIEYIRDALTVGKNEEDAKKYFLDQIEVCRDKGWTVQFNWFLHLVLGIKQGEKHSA
Kind of assay: Fluorescence polarization assay for PI3K. It is filed as biochemical. The settings on record: read-out: PI3 Kinase γ IC50. The procedure, abridged: as §1

The test system of another assay is prostate line LNCap. Kind of assay: In vitro cell culture growth assay (MTS), LNCap. In kind it is cell-based. Conditions: Homo sapiens, LNCaP, 72 h, LNCap cells, three days after drug treatment. Put shortly: (§2)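 The readout was MTS dye metabolism at 490 nm, taken after 3-day drug exposure that began the day after seeding. Growth was expressed as percent of vehicle-treated wells in the same plate.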

For the next assay, the system named is breast line MDA468. The assay is described as follows: In vitro cell culture growth assay (MTS), MDA468. It is filed as cell-based. The settings on record: Homo sapiens, 72 h, MDA468 cells, three days after drug treatment. The procedure, abridged:
as §2

[3] abbreviates: purified human mTOR enzyme, DELFIA format.
Where [4] appears, read: PI3 Kinase α isoform, fluorescence polarization.
Setting [5] is: PI3 Kinase γ isoform, fluorescence polarization.

T2 sequence (P42336 whole entry, canonical isoform): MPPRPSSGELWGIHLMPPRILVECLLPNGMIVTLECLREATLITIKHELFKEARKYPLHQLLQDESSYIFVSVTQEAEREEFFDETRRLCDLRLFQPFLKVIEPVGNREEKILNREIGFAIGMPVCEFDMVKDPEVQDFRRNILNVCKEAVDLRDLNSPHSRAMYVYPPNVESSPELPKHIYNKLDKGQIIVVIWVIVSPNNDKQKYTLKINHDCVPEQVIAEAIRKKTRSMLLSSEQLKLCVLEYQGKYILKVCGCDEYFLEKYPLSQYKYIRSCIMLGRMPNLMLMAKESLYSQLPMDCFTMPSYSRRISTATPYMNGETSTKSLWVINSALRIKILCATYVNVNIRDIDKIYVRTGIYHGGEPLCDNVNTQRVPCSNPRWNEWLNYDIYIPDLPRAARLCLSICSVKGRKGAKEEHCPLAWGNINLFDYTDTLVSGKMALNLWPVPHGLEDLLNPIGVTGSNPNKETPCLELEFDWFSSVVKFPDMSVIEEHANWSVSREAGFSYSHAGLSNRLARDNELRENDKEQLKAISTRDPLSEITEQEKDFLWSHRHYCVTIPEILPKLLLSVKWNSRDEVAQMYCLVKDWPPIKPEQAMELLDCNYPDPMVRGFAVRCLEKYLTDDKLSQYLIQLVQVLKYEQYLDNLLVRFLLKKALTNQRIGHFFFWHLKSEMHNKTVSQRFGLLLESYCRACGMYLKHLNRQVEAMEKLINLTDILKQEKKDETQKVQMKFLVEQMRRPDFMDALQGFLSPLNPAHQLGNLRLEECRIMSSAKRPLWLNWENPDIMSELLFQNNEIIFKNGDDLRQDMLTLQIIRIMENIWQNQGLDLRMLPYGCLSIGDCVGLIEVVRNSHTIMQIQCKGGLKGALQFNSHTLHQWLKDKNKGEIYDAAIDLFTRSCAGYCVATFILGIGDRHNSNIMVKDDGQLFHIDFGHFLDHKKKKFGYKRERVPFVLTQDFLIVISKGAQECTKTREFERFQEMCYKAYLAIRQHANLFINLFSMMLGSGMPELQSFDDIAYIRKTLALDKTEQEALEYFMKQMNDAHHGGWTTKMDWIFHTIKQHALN

As to `COC(=O)N1CCC(n2ncc3c(N4C5CCC4COC5)nc(-c4ccc(NC(=O)Nc5ccc(CN6CCN(C)CC6)cc5)cc4)nc32)CC1` [Example 367, methyl 4-[6-{4-[({4-[(4-methylpiperazin-1-yl)methyl]phenyl}carbamoyl)amino]phenyl}-4-(3-oxa-8-azabicyclo[3.2.1]oct-8-yl)-1H-pyrazolo[3,4-d]pyrimidin-1-yl]piperidine-1-carboxylate], the IC50 amounted to 0.88 nM against Human mTOR (FLAG-TOR) (setting [3]); 2390 nM on PI3K [1] (setting [4]); 1820 nM at PI3K [2] (setting [5]); 1 nM with prostate line LNCap; 13 nM in the assay on breast line MDA468.

With `CCNC(=O)Nc1ccc(-c2nc(N3CC4CCC(C3)O4)c3cnn(C(C)C)c3n2)cc1` [Example 140, 1-ethyl-3-{4-[1-isopropyl-4-(8-oxa-3-azabicyclo[3.2.1]oct-3-yl)-1H-pyrazolo[3,4-d]pyrimidin-6-yl]phenyl}urea], the IC50 stood at 0.14 nM at Human mTOR (FLAG-TOR); 740 nM at PI3K [1] (PI3 Kinase α); 5900 nM on PI3K [2] (PI3 Kinase γ); 1 nM with prostate line LNCap; 32 nM with breast line MDA468.

In the case of `O=C(Nc1ccccc1)Nc1ccc(-c2nc(N3CC4CCC(C3)O4)c3cnn(C4CCC5(CC4)OCCO5)c3n2)cc1` [Example 127, 1-{4-[1-(1,4-dioxaspiro[4.5]dec-8-yl)-4-(8-oxa-3-azabicyclo[3.2.1]oct-3-yl)-1H-pyrazolo[3,4-d]pyrimidin-6-yl]phenyl}-3-phenylurea], the IC50 was 0.155 nM against Human mTOR (FLAG-TOR); 353 nM on PI3K [1] (PI3 Kinase α); over 10000 nM at PI3K [2] (PI3 Kinase γ); 4 nM in the assay on prostate line LNCap; 18 nM with breast line MDA468.

For `CCn1nc(N2CCCC2)c2c(N3CC4CCC(C3)O4)nc(-c3ccc(NC(=O)Nc4cccnc4)cc3)nc21` [Example 346, 1-{4-[1-ethyl-4-(8-oxa-3-azabicyclo[3.2.1]oct-3-yl)-3-pyrrolidin-1-yl-1H-pyrazolo[3,4-d]pyrimidin-6-yl]phenyl}-3-pyridin-3-ylurea], the IC50 stood at 10.9 nM against Human mTOR (FLAG-TOR) (setting [3]); 448 nM at PI3K [1] (setting [4]); 372 nM on PI3K [2] (setting [5]); 290 nM with prostate line LNCap; 950 nM in the assay with breast line MDA468.

As to `Cn1ncc2c(N3CC4CCC(C3)O4)nc(-c3ccc(NC(=O)Nc4ccc(S(=O)(=O)CCN5CCCCC5)cc4)cc3)nc21` [Example 240, 1-{4-[1-methyl-4-(8-oxa-3-azabicyclo[3.2.1]oct-3-yl)-1H-pyrazolo[3,4-d]pyrimidin-6-yl]phenyl}-3-{4-[(2-piperidin-1-ylethyl)sulfonyl]phenyl}urea], the IC50 on Human mTOR (FLAG-TOR) was 0.305 nM; at PI3K [1] (PI3 Kinase α) it was 116 nM; at PI3K [2] (PI3 Kinase γ) it was 916 nM; in the assay with prostate line LNCap, 1 nM; in the assay on breast line MDA468, 8 nM.

For the molecule `CC(C)(C)n1ncc2c(N3CC4CCC(C3)O4)nc(-c3ccc(NC(=O)NCCF)cc3)nc21` [Example 95], the IC50 was 0.61 nM against Human mTOR (FLAG-TOR); 1060 nM on PI3K [1] (PI3 Kinase α); over 10000 nM at PI3K [2] (PI3 Kinase γ); 17 nM in the assay on prostate line LNCap; 280 nM in the assay with breast line MDA468.

Turning to `CC(C)C(=O)N1CCC(n2ncc3c(N4CC5CCC(C4)O5)nc(-c4ccc(NC(=O)NCCF)cc4)nc32)CC1` [Example 85, 1-(2-fluoroethyl)-3-{4-[1-(1-isobutyrylpiperidin-4-yl)-4-(8-oxa-3-azabicyclo[3.2.1]oct-3-yl)-1H-pyrazolo[3,4-d]pyrimidin-6-yl]phenyl}urea], the 50% inhibitory concentration (IC50) against Human mTOR (FLAG-TOR) is 0.47 nM; at PI3K [1] (PI3 Kinase α), 2640 nM; at PI3K [2] (PI3 Kinase γ), over 10000 nM; in the assay on prostate line LNCap, 90 nM; in the assay with breast line MDA468 it was 300 nM.

On to `CN(C)CCn1ncc2c(N3CC4CCC(C3)O4)nc(-c3ccc(NC(=O)Nc4ccc(CCO)cc4)cc3)nc21` [Example 155, 1-(4-{1-[2-(dimethylamino)ethyl]-4-(8-oxa-3-azabicyclo[3.2.1]oct-3-yl)-1H-pyrazolo[3,4-d]pyrimidin-6-yl}phenyl)-3-[4-(2-hydroxyethyl)phenyl]urea], for which the 50% inhibitory concentration (IC50) is 1.75 nM against Human mTOR (FLAG-TOR); 82 nM at PI3K [1] (PI3 Kinase α); 1170 nM at PI3K [2] (PI3 Kinase γ); 1 nM with prostate line LNCap; 110 nM with breast line MDA468.

These data come from US8129371B2, “Thienopyrimidine and pyrazolopyrimidine compounds and their use as mTOR kinase and PI3 kinase inhibitors” (Wyeth LLC, priority 2007, dated 2012).
